Laboratory results as given in patent US9023821B2, “Use of MicroRNA for treating diseases associated with a dysfunction of the cilia in multiciliated epithelial cells” (Centre National de la Recherche Scientifique, priority 2009, dated 2015).

Experiments:
[1] = test system: human airway epithelial cells (HAECs); assay: High-throughput sequencing (HTS) of miRNAs at four stages of differentiation of HAECs; details: for Modulation (ratio of the level of intensity of expression in log2 in two stages of differentiation) measured by high-throughput sequencing, D7 − D0 / Modulation (ratio of the level of intensity of expression in log2 in two stages of differentiation) measured by high-throughput sequencing, FC − D7 / Modulation (ratio of the level of intensity of expression in log2 in two stages of differentiation) measured by high-throughput sequencing, WD − D0 / Modulation (ratio of the level of intensity of expression in log2 in two stages of differentiation) measured by high-throughput sequencing, WD − FC / Level of intensity of expression in log2 measured by high-throughput sequencing, D0 / Level of intensity of expression in log2 measured by high-throughput sequencing, D7 / Level of intensity of expression in log2 measured by high-throughput sequencing, FC / Level of intensity of expression in log2 measured by high-throughput sequencing, WD: Table VI; for Level of intensity of expression in log2 At the differentiated stage (WD) measured in HTS: healthy human airway epithelial tissue; for Level of intensity of expression in log2 measured by high-throughput sequencing, D0: stage D0; for Level of intensity of expression in log2 measured by high-throughput sequencing, D7: stage D7; for Level of intensity of expression in log2 measured by high-throughput sequencing, FC: stage FC; for Level of intensity of expression in log2 At the differentiated stage (WD) measured in HTS / Level of intensity of expression in log2 measured by high-throughput sequencing, WD: stage WD
How it was run: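 Differentiation time course at air-liquid interface: 0, 7, ~14 (first cilia) and ~21 days (fully differentiated). Sequencing counts per strand were normalized to 10^6 sequences and analysed by linear model with empirical Bayesian moderation.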

[2] = test system: human airway epithelial cells (HAECs); assay: Agilent miRNA chips, miRNA expression at four stages of differentiation of HAECs; details: for Modulation (ratio of the level of intensity of expression in log2 in two stages of differentiation) measured with the Agilent chips, D7 − D0 / Modulation (ratio of the level of intensity of expression in log2 in two stages of differentiation) measured with the Agilent chips, FC − D7 / Modulation (ratio of the level of intensity of expression in log2 in two stages of differentiation) measured with the Agilent chips, WD − D0 / Modulation (ratio of the level of intensity of expression in log2 in two stages of differentiation) measured with the Agilent chips, WD − FC / Level of intensity of expression in log2 measured with the Agilent chips, D0 / Level of intensity of expression in log2 measured with the Agilent chips, D7 / Level of intensity of expression in log2 measured with the Agilent chips, FC / Level of intensity of expression in log2 measured with the Agilent chips, WD: Table VI; for Modulation (ratio of the level of intensity of expression in log2 at two stages of differentiation), FC − D7 / Modulation (ratio of the level of intensity of expression in log2 at two stages of differentiation), WD − FC: Agilent miRNA chips, Table V; for Level of intensity of expression in log2 measured with the Agilent chips, D0: stage D0; for Level of intensity of expression in log2 measured with the Agilent chips, D7: stage D7; for Level of intensity of expression in log2 measured with the Agilent chips, FC: stage FC; for Level of intensity of expression in log2 measured with the Agilent chips, WD: stage WD
How it was run: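 To benchmark sequencing, the microRNAome was also profiled by hybridizing labelled RNA from identical patient samples to v2 arrays with miRBase v.12.0 human content (866 miRNAs) and 89 viral miRNAs.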

[3] = test system: basal cells and pyramidal cells of the airway epithelium; assay: miRNA expression in sorted basal cells versus pyramidal cells (ciliated + secretory), HTS and Agilent chips; design: species or system human; details: for Modulation of expression of the miRNAs in pyramidal cells (323(−)) relative to basal cells 323(+): HTS and Agilent chips; for Intensity of the level of expression in log2 in pyramidal cells (323(−)): pyramidal cells (ciliated + secretory)
How it was run: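 Sorted basal versus ciliated/mucus-secreting cells; markers CD151 and tissue factor; donors n=3; miRNA by Agilent chip or HTS.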

Substance | Modulation (ratio of the level of intensity of expression in log2 in two stages of differentiation) measured by high-throughput sequencing, D7 − D0 [1] | Modulation (ratio of the level of intensity of expression in log2 in two stages of differentiation) measured by high-throughput sequencing, FC − D7 [1] | Modulation (ratio of the level of intensity of expression in log2 in two stages of differentiation) measured by high-throughput sequencing, WD − D0 [1] | Modulation (ratio of the level of intensity of expression in log2 in two stages of differentiation) measured by high-throughput sequencing, WD − FC [1] | Level of intensity of expression in log2 At the differentiated stage (WD) measured in HTS [1] | Level of intensity of expression in log2 measured by high-throughput sequencing, D0 [1] | Level of intensity of expression in log2 measured by high-throughput sequencing, D7 [1] | Level of intensity of expression in log2 measured by high-throughput sequencing, FC [1] | Level of intensity of expression in log2 measured by high-throughput sequencing, WD [1] | Modulation (ratio of the level of intensity of expression in log2 in two stages of differentiation) measured with the Agilent chips, D7 − D0 [2] | Modulation (ratio of the level of intensity of expression in log2 at two stages of differentiation), FC − D7 [2] | Modulation (ratio of the level of intensity of expression in log2 in two stages of differentiation) measured with the Agilent chips, FC − D7 [2] | Modulation (ratio of the level of intensity of expression in log2 in two stages of differentiation) measured with the Agilent chips, WD − D0 [2] | Modulation (ratio of the level of intensity of expression in log2 at two stages of differentiation), WD − FC [2] | Modulation (ratio of the level of intensity of expression in log2 in two stages of differentiation) measured with the Agilent chips, WD − FC [2] | Level of intensity of expression in log2 measured with the Agilent chips, D0 [2] | Level of intensity of expression in log2 measured with the Agilent chips, D7 [2] | Level of intensity of expression in log2 measured with the Agilent chips, FC [2] | Level of intensity of expression in log2 measured with the Agilent chips, WD [2] | Modulation of expression of the miRNAs in pyramidal cells (323(−)) relative to basal cells 323(+) [3] | further results
hsa-miR-151-5p: human miRNA, SEQ ID No. 8 (UCGAGGAGCUCACAGUCUAGU; expressed or natural sequence; listed as Homo sapiens) | 1.13 log2 | −0.02 log2 | 1.02 log2 | −0.09 log2 | 10.22 log2 | 9.20 log2 | 10.33 log2 | 10.31 log2 | 10.22 log2 | 1.83 log2 | −0.37 log2 | −0.37 log2 | 1.46 log2 | 0.00 log2 | 0.00 log2 | 6.71 log2 | 8.54 log2 | 8.17 log2 | 8.17 log2 | −0.73 | Intensity of the level of expression in log2 in basal cells (323(+)) [3]: 7.24 log2; Intensity of the level of expression in log2 in pyramidal cells (323(−)) [3]: 6.51 log2
hsa-miR-141: human miRNA, SEQ ID No. 6 (UAACACUGUCUGGUAAAGAUGG; expressed or natural sequence; listed as Homo sapiens) | 1.17 log2 | 0.37 log2 | 1.70 log2 | 0.17 log2 | 9.75 log2 | 8.05 log2 | 9.22 log2 | 9.58 log2 | 9.75 log2 | 2.16 log2 | −0.28 log2 | −0.28 log2 | 1.88 log2 | 0.00 log2 | 0.00 log2 | 11.15 log2 | 13.31 log2 | 13.03 log2 | 13.03 log2 | −2.88 | Intensity of the level of expression in log2 in basal cells (323(+)) [3]: 11.12 log2; Intensity of the level of expression in log2 in pyramidal cells (323(−)) [3]: 8.24 log2
hsa-miR-429: human miRNA, SEQ ID No. 45 (UAAUACUGUCUGGUAAAACCGU; expressed or natural sequence; listed as Homo sapiens) | 0.42 log2 | 0.14 log2 | 1.30 log2 | 0.74 log2 | 15.11 log2 | 8.23 log2 | 8.65 log2 | 8.79 log2 | 9.53 log2 | 1.71 log2 | 0.14 log2 | 0.14 log2 | 1.95 log2 | 0.10 log2 | 0.10 log2 | 7.97 log2 | 9.68 log2 | 9.82 log2 | 9.93 log2 | −0.31 | Intensity of the level of expression in log2 in basal cells (323(+)) [3]: 6.92 log2; Intensity of the level of expression in log2 in pyramidal cells (323(−)) [3]: 6.61 log2
hsa-miR-30b: human miRNA, SEQ ID No. 33 (UGUAAACAUCCUACACUCAGCU; expressed or natural sequence; listed as Homo sapiens) | 0.83 log2 | −0.27 log2 | 1.24 log2 | 0.68 log2 | 0.01 log2 | 8.50 log2 | 9.33 log2 | 9.06 log2 | 9.74 log2 | 2.36 log2 | 0.05 log2 | 0.05 log2 | 2.55 log2 | 0.15 log2 | 0.15 log2 | 7.62 log2 | 9.98 log2 | 10.03 log2 | 10.17 log2 | −0.80 | Intensity of the level of expression in log2 in basal cells (323(+)) [3]: 8.76 log2; Intensity of the level of expression in log2 in pyramidal cells (323(−)) [3]: 7.96 log2
